Tests used:
[1] = tested on: SKOV-3 (human ovarian cancer); test: PTX cytotoxicity, MTT assay, SKOV3; assay type: cell-based; details: SK-OV-3, SKOV3, 72 hours
Experimental: (§1) Cells were seeded at a density of 10,000 cells per well in a 96-well and incubated overnight in 200 μL of complete medium. The culture medium was then replaced with 198 μL of fresh medium, two free drug/DMSO solution or NP suspensions in the final concentration ranging from 0.001 to 10,000 nM. After 72 hours of incubation, the medium was replaced with 100 μL of fresh medium containing 13% MTT and incubated for 3.5 hours. Finally, 100 μL of the solubilization/stop solution comprising 20% SDS, 0.02% v/v acetic acid, and 50% v/v DMSO was added to each well, and the absorbance was read at 560 nm by the microplate reader. Cell viability was calculated by dividing the absorbance of treated cells by that of untreated cells after subtracting the absorbance of cell-free medium from each. Here, the untreated cells were those provided with no drug but handled equally otherwise, and the cell-free medium was the medium mixed with MTT solution and stop-solution without cells.
(§2) Cell viability was determined as described in Example 5.

[2] = tested on: Calu6 (human lung cancer); test: PTX cytotoxicity, MTT assay, Calu6; assay type: cell-based; details: Calu-6, Calu6, 72 hours
Experimental: as §1, §2

[3] = tested on: BR5FVB1-Akt (murine ovarian cancer); test: PTX cytotoxicity, MTT assay, BR5FVB1-Akt; assay type: cell-based; details: Mus musculus, 72 hours
Experimental: as §1, §2

[4] = PTX content in murine blood and peritoneal cavity after IP dosing; assay type: in vivo; details: female, FVB, mouse, mice, IP 5 mg/kg, 3 hours post dosing
Experimental: Six week-old female FVB mice were obtained from Charles River Laboratory (Boston, USA). Mice were housed in a pathogen-free facility in accordance with the standards of the Dana-Farber Cancer Institute. All animal experiments were approved by the Institute's IACUC. Mice were kept in groups of 4-5 per cage in a 12 hour light/12 hour dark cycle and housed at 25° C. with 50% relative humidity. […] Mice were anaesthetized, and blood samples were collected via retro-orbital bleeding 3 hours post dosing. Blood samples were kept on ice until centrifugation. Samples were centrifuged at 1,400 RCF for 10 min, and plasma was collected. After blood sample collection, mice were sacrificed, and their peritoneal cavities were washed thrice post-mortem with PBS. Plasma and peritoneal washes were flash frozen with liquid nitrogen and lyophilized. The lyophilized powders were rehydrated in 300 μL water and extracted with tert-butyl methyl ether (tBME). The organic solvent was dried under nitrogen.

BR5FVB1-Akt cells = test: Survival study in immunocompetent murine model of ovarian cancer; assay type: in vivo, mouse; details: FVB mice, IP 5 mg/kg twice weekly, five doses
Experimental: The BR5FVB1-Akt mouse ovarian cancer cell line was cultured in DMEM supplemented with 10% FBS and 1% penicillin/streptomycin at 37° C. with 5% CO2. Subconfluent BR5FVB1-Akt cells were trypsinized, washed, and suspended in opti-MEM as a single-cell suspension. Six week-old female FVB mice were injected IP with a total volume of 400 μl opti-MEM containing 3.75×10^6 BR5FVB1-Akt cells.
Mice were sacrificed by CO2 asphyxiation upon ascites development. Their peritoneal cavities were opened postmortem to observe tumor location and extent of metastasis in the peritoneal region. All FVB mice inoculated with BR5FVB1-Akt cells developed tumors. Tumors developed gradually and manifested by formation of ascites in the peritoneal cavity. Tumors were detectable post-mortem as nodules of various sizes and number on the peritoneal wall or adhered to the intestine.
Statistical analysis was performed with GraphPad Prism 5 (La Jolla, Calif., USA). Statistical significance among groups was determined by one-way ANOVA, and pairs were compared by Tukey's multi-comparison test. Survival groups were compared using a Mantel-Cox test.

4T1 cells = test: Viability of 4T1 cells exposed to Dox or Dox-laden nanoparticles through matrigel; assay type: cell-based; details: 500 ng/mL Dox; 3, 6 and 24 hours
Experimental: Nanoparticles with doxorubicin in the core were formed as described in Example 1, except doxorubicin was added to the organic solvent. The particles were coated as described in Example 10. To test the cell viability for cells exposed to doxorubicin particles, 500 ng/mL of Dox or Dox-laden nanoparticles were added to matrigel on top chamber of a 24 well plates seeded with 4T1 cells. Plates were incubated at 37° C., while gently shaken. The viability was measured at 3 hours, 6 hours, and 24 hours. Cell viability was determined as described in Example 5. For the mammosphere assay, 4T1 cells were seeded at 1000 cells/150 uL/well in 96 well ultra-low adherence plate. The remaining 4T1 cells after treatment were harvested and filtered and the number of mammospheres counted using microscopy.

Row | SMILES | IC50 [1] [nM] | IC50 [2] [nM] | IC50 [3] [nM] | concentration at 3 h ([4]; peritoneal lavage (PBS wash of peritoneal cavity)) [ng/mL] | concentration at 3 h ([4]; plasma) [ng/mL] | tumor onset (BR5FVB1-Akt cells) | viability of cells (4T1 cells)
1 | CC(=O)O[C@H]1C(=O)[C@@]2(C)[C@H]([C@H](OC(=O)c3ccccc3)[C@]3(O)C[C@H](OC(=O)[C@H](O)[C@@H](NC(=O)c4ccccc4)c4ccccc4)C(C)=C1C3(C)C)[C@]1(OC(C)=O)CO[C@@H]1C[C@@H]2O [PTX, paclitaxel] | ~10 | ~10 | ~100 | 4500 ± 1300 | 9500 ± 1900 | developed tumors at similar time points | 
2 | COc1cccc2c1C(=O)c1c(O)c3c(c(O)c1C2=O)C[C@@](O)(C(=O)CO)C[C@@H]3O[C@H]1C[C@H](N)[C@H](O)[C@H](C)O1 [Dox in solution, doxorubicin] |  |  |  |  |  |  | reduced viability of cells
